Laboratory results from patent EP0179751B1, “Ionophore polyether, process for its preparation and its use” (SANOFI, priority 1984, dated 1986).
≈ marks a conversion by molar mass, not a printed value. Read-outs that look alike come from different tables or passages of the source.

How the values were obtained:
solubility = type: physicochemical
Protocol: Aspect: solide P.F. : 83-85° C Solubilité : se dissout dans les solvants organiques usuels, tels que les alcools inférieurs par exemple méthanol, éthanol, les esters inférieurs, par exemple l'acétate d'éthyle ou encore dans l'éther éthylique et le chloroforme. Dans l'eau, la solubilité est de 44 % environ. αj25 : +45° (c = 0,03 n, méthanol)
Aspect : mousse blanche solide. P.F. 120-123° C Solubilité : se dissout dans les solvants organiques usuels, tels que les alcools inférieurs par exemple méthanol, éthanol, les esters inférieurs par exemple l'acétate d'éthyle ou encore dans l'éther éthylique et le chloroforme. Par contre, il est insoluble dans l'eau.

[1] = cited from earlier work
Bacillus cereus = assay: minimum inhibitory concentration, dilution method; type: cell-based
Source text: Par exemple, on a décrit dans les brevets de l'Allemagne de l'Est Nos. 208 172 et 237 725 des complexes d'antibiotiques produits à partir de souches de Streptomyces hygroscopicus. Ces composés polyéthers sont caractérisés par une activité antibiotique importante et comparativement plus importante que celle présentée par la monensine ou la salinomycine. Par contre, l'abiérixine est douée d'activité antibiotique très faible par rapport à celle présentée par la plupart des ionophores polyéthers connus comme la monensine, la nigéricine ou la grisorixine. Par exemple, la concentration minimale inhibitrice de l'abiérixine vis-à-vis de Bacillus cereus déterminée selon la méthode de dilution est de 25 µg/ml mais de 0,05 µg/ml, 0,05 ug/ml et 3,12 gg/ml dans le cas respectivement de la monensine, de la nigéricine et de la grisorixine.

[2] = mouse, in vivo; cited from earlier work
Eimeria tenella = assay: anticoccidial test in cockerels inoculated with Eimeria tenella; type: in vivo; settings: for Lésion individuelle Moyenne: Reid lesion score; for IC de J - 2 à J + 8: feed conversion index; for EO x 10^3 Total: oocyst excretion J+4 to J+8; for EO %: oocyst excretion relative to CTNT; for P = poids moyen à J + 8: start weight 127 g
Source text: Des tests ont été effectués de manière à montrer l'efficacité de l'abiérixine comme agent anticoccidien dans lesquels on a relevé les résultats zootechniques (poids, indice de consommation) et les symptômes […] de coccidiose (morbidité, mortalité, aspect des matières fécales, excrétion ookystale, lésions).
On a utilisé à cet effet le protocole expérimental suivant : • Animaux • - Coquelets de souche génétique Warren Sex Sal Link • - Age le jour de l'inoculation (J O) : 17 jours • - Age le jour de l'abattage (J +8) : 25 jours
Inoculum Dose : 300 000 oocystes sporulés d'Eimeria tenella
Alimentation • - Aliment utilisé : aliment type poulet de chair, 1er âge • - Anticoccidien utilisé : l'abiérixine à la dose de 40 ou 50 ppm/jour depuis J-2 jusqu'à J +8
Lots • - Nombre d'animaux par lot : 4 • - Répartition des lots : • NCNT : animaux non contaminés, non traités • CTNT : animaux contaminés, non traités • CTT, : animaux contaminés, traités avec 40 ppm d'abiérixine • CTT2 : animaux contaminés, traités avec 50 ppm d'abiérixine
Les critères • - Les gains de poids (GP) de J-2 à J +8 • - L'excrétion ookystale (EO) journalière de J+4 à J+8 • - La morbidité (M) notée de 0 à 4 • - L'aspect des fécès noté de 0 : fécès normales à 4 : fécès diarrhéiques ou hémorragiques (MF) • - La mortalité (M %) exprimée en pourcentage • - Les lésions (L) notées selon la notation de RFID (W. Malcolm REID, "A diagnostic chart of nine species of fowl coccidia - Georgia Agricultural Experiment Stations - Dec. 1964, Technical Bulletin N. S. 39) • - Les indices de consommation (IC)

acute toxicity, oral = settings: mouse, in vivo, souris, voie orale, read-out: toxicité aiguë DL50
Protocol: On a trouvé, par exemple, que la toxicité aiguë DL50 de l'abiérixine chez la souris par voie orale est comprise entre 600 et 1000 mg/kg alors que, dans les mêmes conditions, la toxicité d'autres polyéthers polycycliques se révèle beaucoup plus importante, de l'ordre de 50 mg/kg (DL50 lonomycine : 50 mg/kg, complexe de monensine- : 43,8 mg/kg, salinomycine- : 50 mg/kg).

flore ruménale = assay: in vitro rumen flora fermentation, nitrogen use; settings: in the absence of protein nitrogen
[3] = system: Streptomyces C.N.C.M.-I-321; assay: sensitivity of producer strain to nigericin (MIC); type: cell-based
[4] = system: Streptomyces hygroscopicus NRRL B 1865; assay: sensitivity of producer strain to nigericin (MIC); type: cell-based
[5] = system: Streptomyces hygroscopicus NRRL 3602; assay: sensitivity of producer strain to nigericin (MIC); type: cell-based
[6] = souris, voie orale, comparison polyethers
[7] = CTT1: 40 ppm, J + 6, score 0 to 4
[8] = CTT1: 40 ppm, J + 7, score 0 to 4
[9] = CTT2: 50 ppm, J + 6, score 0 to 4
[10] = CTT2: 50 ppm, J + 7, score 0 to 4

With COC1CC(CC(O)CCC(C)C=C(C)C(=O)O)OC2(OC(C)(C3CCC(C)(C4OC(C5OC(O)(CO)C(C)CC5C)CC4C)O3)CC2C)C1C (stereo not shown) [sel de sodium de l'abiérixine] the “Solubilité dans l'eau” value (solubility; water, in words) was “insoluble”.
In the case of complexe de monensine, the DL50 [1, 6] is given as 43,8 mg/kg.
With CO[C@@H]1C[C@@H](C[C@H]2CC[C@H](C)C(C(C)C(=O)O)O2)O[C@]2(OC(C)(C3CCC(C)(C4O[C@@H]([C@H]5O[C@](C)(O)[C@H](C)C[C@@H]5C)C[C@@H]4C)O3)CC2C)[C@@H]1C (stereo partly shown) [grisorixine] the concentration minimale inhibitrice (Bacillus cereus) was 3,12 gg/ml.
With COC1CC(CC(O)CCC(C)C=C(C)C(=O)O)OC2(OC(C)(C3CCC(C)(C4OC(C5OC(O)(CO)C(C)CC5C)CC4C)O3)CC2C)C1C (stereo not shown) [abiérixine monohydratée] the “Solubilité dans les solvants organiques usuels” value (solubility; méthanol, éthanol, acétate d'éthyle, éther éthylique, chloroforme) was “se dissout” and the solubility (solubility; water, read-out: Solubilité dans l'eau) was ~440 mg/mL (≈ 607 mM).
In the case of lonomycine, the DL50 [1, 6] is given as 50 mg/kg.
In the case of CC[C@@H](C(=O)[C@@H](C)[C@@H](O)[C@H](C)[C@@H]1O[C@@H]([C@@H](CC)C(=O)O)CC[C@@H]1C)[C@H]1O[C@]2(C=C[C@@H](O)[C@]3(CC[C@@](C)([C@H]4CC[C@](O)(CC)[C@H](C)O4)O3)O2)[C@H](C)C[C@@H]1C [salinomycine], the DL50 ([1]; mouse, in vivo, po) is listed as 50 mg/kg and the DL50 [2] is listed as 18 mg/kg.
For COC1CC(CC(O)CCC(C)C=C(C)C(=O)O)OC2(OC(C)(C3CCC(C)(C4OC(C5OC(O)(CO)C(C)CC5C)CC4C)O3)CC2C)C1C (stereo not shown) [abiérixine], the MIC (Bacillus cereus; read-out: concentration minimale inhibitrice) was 25 µg/mL (≈ 0.0345 mM), the “croissance pondérale” value (Eimeria tenella; 40 ppm/jour for 10 days, cockerels infected with E. tenella) was “augmente la croissance pondérale” and the “M % (mortalité)” value (Eimeria tenella; CTT1: 40 ppm) was 0%. For the same compound, the “GP = gain de poids moyen de J - 2 à J + 8” value (Eimeria tenella; CTT1: 40 ppm in feed J-2 to J+8) was 93 g, the “MF (aspect des fécès)” value (Eimeria tenella; CTT1: 40 ppm, J + 5, score 0 normal to 4 diarrhoeic or haemorrhagic) was 4 and the “M (morbidité)” value (Eimeria tenella; CTT1: 40 ppm, J + 5, score 0 to 4) was 3. The “M (morbidité)” value (Eimeria tenella; [7]) was 0, the “MF (aspect des fécès)” value (Eimeria tenella; [7]) was 1 and the “M (morbidité)” value (Eimeria tenella; [8]) was 0. For the same compound, the “MF (aspect des fécès)” value (Eimeria tenella; [8]) was 0, the “Lésion individuelle Moyenne” value (Eimeria tenella; CTT1: 40 ppm) was 2,5 and the “IC de J - 2 à J + 8” value (Eimeria tenella; CTT1: 40 ppm) was 2,8. The “EO x 10^3 Total” value (Eimeria tenella; CTT1: 40 ppm) was 4165 x 10^3, the EO % (Eimeria tenella; CTT1: 40 ppm) was 74,0% and the “P = poids moyen à J + 8” value (Eimeria tenella; CTT1: infected cockerels, 40 ppm in feed J-2 to J+8) was 219 g. For the same compound, the “M % (mortalité)” value (Eimeria tenella; CTT2: 50 ppm) was 0%, the “GP = gain de poids moyen de J - 2 à J + 8” value (Eimeria tenella; CTT2: 50 ppm in feed J-2 to J+8) was 63 g and the “MF (aspect des fécès)” value (Eimeria tenella; CTT2: 50 ppm, J + 5, score 0 normal to 4 diarrhoeic or haemorrhagic) was 3. The “M (morbidité)” value (Eimeria tenella; CTT2: 50 ppm, J + 5, score 0 to 4) was 3, the “M (morbidité)” value (Eimeria tenella; [9]) was 0 and the “MF (aspect des fécès)” value (Eimeria tenella; [9]) was 1. For the same compound, the “M (morbidité)” value (Eimeria tenella; [10]) was 0, the “MF (aspect des fécès)” value (Eimeria tenella; [10]) was 0 and the “Lésion individuelle Moyenne” value (Eimeria tenella; CTT2: 50 ppm) was 3,5. For the same compound, the “IC de J - 2 à J + 8” value (Eimeria tenella; CTT2: 50 ppm) was 3,35, the “EO x 10^3 Total” value (Eimeria tenella; CTT2: 50 ppm) was 2324 x 10^3 and the EO % (Eimeria tenella; CTT2: 50 ppm) was 41,3%. For the same compound, the “P = poids moyen à J + 8” value (Eimeria tenella; CTT2: infected cockerels, 50 ppm in feed J-2 to J+8) was 190 g, the LD50 (acute toxicity, oral) was 600 to 1000 mg/kg and the “diminution de l'efficacité de la synthèse microbienne” value (flore ruménale) was 10%.
For nigéricine, the concentration minimale inhibitrice (Bacillus cereus) was 0,05 ug/ml, the “Sensibilité à la nigéricine (C.M.I)” value [3] was > 500 µg/mL and the “Sensibilité à la nigéricine (C.M.I)” value [4] was > 500 µg/mL. The “Sensibilité à la nigéricine (C.M.I)” value [5] was > 500 µg/mL and the “diminution de l'efficacité de la synthèse microbienne” value (flore ruménale) was > 30%.
